{
  "source": "patent US20250296953A1",
  "about": "“3,4-THIAZOLO-STEROIDS AND METHODS OF MAKING AND USING THE SAME” (Arkansas State University - Jonesboro, priority 2018, published 2025)",
  "key": {"[1]": {"system": "60 different human tumor cell lines", "settings": "five dose; for CC50: read-out: LC50"}, "[2]": {"system": "glioblastoma (SF-295)", "test": "NCI 60 five dose screen", "settings": "SF-295 (CNS Cancer), five dose"}},
  "note": "Like-named read-outs stand apart in the source and are kept apart here.",
  "data": [
    {"smiles": "C[C@]12CCc3nc(Nc4ccc(O)cc4)sc3C1=CC[C@@H]1[C@@H]2CC[C@]2(C)C(=O)CC[C@@H]12", "note": "[IIa.35]", "values": [
      {"measurement": "GI50", "setting": "[1]; SF-268 (CNS Cancer)", "value": 3370, "unit": "nM"},
      {"measurement": "TGI", "setting": "[1]; SF-268 (CNS Cancer)", "value": "4.00E−4"},
      {"measurement": "GI50", "setting": "[1]; SK-MEL-2 (Melanoma)", "value": 6980, "unit": "nM"},
      {"measurement": "TGI", "setting": "[1]; SK-MEL-2 (Melanoma)", "value": ">1.00E−4"},
      {"measurement": "GI50", "setting": "[1]; SK-MEL-5 (Melanoma)", "value": 4330, "unit": "nM"},
      {"measurement": "TGI", "setting": "[1]; SK-MEL-5 (Melanoma)", "value": "3.19E−5"},
      {"measurement": "GI50", "setting": "[1]; SK-MEL-28 (Melanoma)", "value": 2080, "unit": "nM"},
      {"measurement": "TGI", "setting": "[1]; SK-MEL-28 (Melanoma)", "value": "4.75E−6"},
      {"measurement": "GI50", "setting": "[1]; SK-OV-3 (Ovarian Cancer)", "value": 12300, "unit": "nM"},
      {"measurement": "TGI", "setting": "[1]; SK-OV-3 (Ovarian Cancer)", "value": ">1.00E−4"},
      {"measurement": "GI50", "setting": "[1]; SN12C (Renal Cancer)", "value": 2910, "unit": "nM"},
      {"measurement": "TGI", "setting": "[1]; SN12C (Renal Cancer)", "value": ">1.00E−4"},
      {"measurement": "GI50", "setting": "[1]; SNB-19 (CNS Cancer)", "value": 10900, "unit": "nM"},
      {"measurement": "TGI", "setting": "[1]; SNB-19 (CNS Cancer)", "value": ">1.00E−4"},
      {"measurement": "GI50", "setting": "[1]; SNB-75 (CNS Cancer)", "value": 2760, "unit": "nM"},
      {"measurement": "TGI", "setting": "[1]; SNB-75 (CNS Cancer)", "value": ">1.00E−4"},
      {"measurement": "GI50", "setting": "[1]; SW-620 (Colon Cancer)", "value": 2080, "unit": "nM"},
      {"measurement": "TGI", "setting": "[1]; SW-620 (Colon Cancer)", "value": "4.73E−6"},
      {"measurement": "GI50", "setting": "[1]; T-47D (Breast Cancer)", "value": 1950, "unit": "nM"},
      {"measurement": "TGI", "setting": "[1]; T-47D (Breast Cancer)", "value": "5.03E−6"},
      {"measurement": "GI50", "setting": "[1]; TK-10 (Renal Cancer)", "value": 2010, "unit": "nM"},
      {"measurement": "TGI", "setting": "[1]; TK-10 (Renal Cancer)", "value": "4.40E−6"},
      {"measurement": "GI50", "setting": "[1]; U251 (CNS Cancer)", "value": 3060, "unit": "nM"},
      {"measurement": "TGI", "setting": "[1]; U251 (CNS Cancer)", "value": "2.19E−5"},
      {"measurement": "GI50", "setting": "[1]; UACC-62 (Melanoma)", "value": 1760, "unit": "nM"},
      {"measurement": "TGI", "setting": "[1]; UACC-62 (Melanoma)", "value": "4.02E−6"},
      {"measurement": "GI50", "setting": "[1]; UACC-257 (Melanoma)", "value": 1860, "unit": "nM"},
      {"measurement": "TGI", "setting": "[1]; UACC-257 (Melanoma)", "value": "4.62E−6"},
      {"measurement": "GI50", "setting": "[1]; UO-31 (Renal Cancer)", "value": 1540, "unit": "nM"},
      {"measurement": "TGI", "setting": "[1]; UO-31 (Renal Cancer)", "value": "2.90E−6"},
      {"measurement": "CC50", "setting": "[1]; A498 (Renal Cancer)", "value": "> 100", "unit": "µM"},
      {"measurement": "CC50", "setting": "[1]; A549/ATCC (Non-small Cell Lung Cancer)", "value": "> 100", "unit": "µM"},
      {"measurement": "CC50", "setting": "[1]; ACHN (Renal Cancer)", "value": 36.6, "unit": "µM"},
      {"measurement": "CC50", "setting": "[1]; BT-549 (Breast Cancer)", "value": "> 100", "unit": "µM"},
      {"measurement": "CC50", "setting": "[1]; CCRF-CEM (Leukemia)", "value": "> 100", "unit": "µM"},
      {"measurement": "CC50", "setting": "[1]; COLO 205 (Colon Cancer)", "value": 7.61, "unit": "µM"},
      {"measurement": "CC50", "setting": "[1]; EKVX (Non-small Cell Lung Cancer)", "value": "> 100", "unit": "µM"},
      {"measurement": "CC50", "setting": "[1]; HCC-2998 (Colon Cancer)", "value": "> 100", "unit": "µM"},
      {"measurement": "CC50", "setting": "[1]; HCT-15 (Colon Cancer)", "value": "> 100", "unit": "µM"},
      {"measurement": "CC50", "setting": "[1]; HL-60(TB) (Leukemia)", "value": "> 100", "unit": "µM"},
      {"measurement": "CC50", "setting": "[1]; HOP-62 (Non-small Cell Lung Cancer)", "value": "> 100", "unit": "µM"},
      {"measurement": "CC50", "setting": "[1]; HOP-92 (Non-small Cell Lung Cancer)", "value": "> 100", "unit": "µM"},
      {"measurement": "CC50", "setting": "[1]; HT29 (Colon Cancer)", "value": "> 100", "unit": "µM"},
      {"measurement": "CC50", "setting": "[1]; IGROV1 (Ovarian Cancer)", "value": "> 100", "unit": "µM"},
      {"measurement": "CC50", "setting": "[1]; K-562 (Leukemia)", "value": "> 100", "unit": "µM"},
      {"measurement": "CC50", "setting": "[1]; M14 (Melanoma)", "value": "> 100", "unit": "µM"},
      {"measurement": "CC50", "setting": "[1]; MALME-3M (Melanoma)", "value": 8.96, "unit": "µM"},
      {"measurement": "CC50", "setting": "[1]; MCF7 (Breast Cancer)", "value": "> 100", "unit": "µM"},
      {"measurement": "CC50", "setting": "[1]; MDA-MB-231/ATCC (Breast Cancer)", "value": "> 100", "unit": "µM"},
      {"measurement": "CC50", "setting": "[1]; MDA-MB-435 (Melanoma)", "value": "> 100", "unit": "µM"},
      {"measurement": "CC50", "setting": "[1]; MDA-MB-468 (Breast Cancer)", "value": "> 100", "unit": "µM"},
      {"measurement": "CC50", "setting": "[1]; MOLT-4 (Leukemia)", "value": "> 100", "unit": "µM"},
      {"measurement": "CC50", "setting": "[1]; NCI-H23 (Non-small Cell Lung Cancer)", "value": "> 100", "unit": "µM"},
      {"measurement": "CC50", "setting": "[1]; NCI-H226 (Non-small Cell Lung Cancer)", "value": "> 100", "unit": "µM"},
      {"measurement": "CC50", "setting": "[1]; NCI-H460 (Non-small Cell Lung Cancer)", "value": "> 100", "unit": "µM"},
      {"measurement": "CC50", "setting": "[1]; NCI-H522 (Non-small Cell Lung Cancer)", "value": 6.18, "unit": "µM"},
      {"measurement": "CC50", "setting": "[1]; NCI/ADR-RES (Ovarian Cancer)", "value": "> 100", "unit": "µM"},
      {"measurement": "CC50", "setting": "[1]; OVCAR-3 (Ovarian Cancer)", "value": 6.7, "unit": "µM"},
      {"measurement": "CC50", "setting": "[1]; OVCAR-4 (Ovarian Cancer)", "value": "> 100", "unit": "µM"},
      {"measurement": "CC50", "setting": "[1]; OVCAR-5 (Ovarian Cancer)", "value": "> 100", "unit": "µM"},
      {"measurement": "CC50", "setting": "[1]; OVCAR-8 (Ovarian Cancer)", "value": "> 100", "unit": "µM"},
      {"measurement": "CC50", "setting": "[1]; PC-3 (Prostate Cancer)", "value": "> 100", "unit": "µM"},
      {"measurement": "CC50", "setting": "[1]; SF-268 (CNS Cancer)", "value": "> 100", "unit": "µM"},
      {"measurement": "CC50", "setting": "[1]; SK-MEL-2 (Melanoma)", "value": "> 100", "unit": "µM"},
      {"measurement": "CC50", "setting": "[1]; SK-MEL-5 (Melanoma)", "value": "> 100", "unit": "µM"},
      {"measurement": "CC50", "setting": "[1]; SK-MEL-28 (Melanoma)", "value": "> 100", "unit": "µM"},
      {"measurement": "CC50", "setting": "[1]; SK-OV-3 (Ovarian Cancer)", "value": "> 100", "unit": "µM"},
      {"measurement": "CC50", "setting": "[1]; SN12C (Renal Cancer)", "value": "> 100", "unit": "µM"},
      {"measurement": "CC50", "setting": "[1]; SNB-19 (CNS Cancer)", "value": "> 100", "unit": "µM"},
      {"measurement": "CC50", "setting": "[1]; SNB-75 (CNS Cancer)", "value": "> 100", "unit": "µM"},
      {"measurement": "CC50", "setting": "[1]; SW-620 (Colon Cancer)", "value": "> 100", "unit": "µM"},
      {"measurement": "CC50", "setting": "[1]; T-47D (Breast Cancer)", "value": "> 100", "unit": "µM"},
      {"measurement": "CC50", "setting": "[1]; TK-10 (Renal Cancer)", "value": 9.6, "unit": "µM"},
      {"measurement": "CC50", "setting": "[1]; U251 (CNS Cancer)", "value": "> 100", "unit": "µM"},
      {"measurement": "CC50", "setting": "[1]; UACC-62 (Melanoma)", "value": 9.19, "unit": "µM"},
      {"measurement": "CC50", "setting": "[1]; UACC-257 (Melanoma)", "value": "> 100", "unit": "µM"},
      {"measurement": "CC50", "setting": "[1]; UO-31 (Renal Cancer)", "value": 9.49, "unit": "µM"},
      {"measurement": "GI50", "setting": "[2]", "value": 5.26, "unit": "µM"},
      {"measurement": "TGI", "setting": "[2]", "value": "3.59E−5"},
      {"measurement": "CC50", "setting": "[2]; read-out: LC50", "value": "> 100", "unit": "µM"}
    ]}
  ]
}
